Test results as given in patent US11584747B2, “Substituted pyridopyrimidinonyl compounds useful as T cell activators” (BRISTOL-MYERS SQUIBB COMPANY, priority 2019, dated 2023).
Where two headings read alike, the source gives them in different places.

Experiments:
human DGKζ = human DGKζ (Homo sapiens (Human), UniProt Q13574); experiment: DGKζ LIPGLO assay (extruded liposome substrate, ADP-Glo luminescence); type: biochemical; settings: liposome assay; read-out: DGK zeta LIPGLO IC50
whole blood (pERK) = experiment: pERK Whole Blood assay (Table A; no whole-blood pERK method described); type: cell-based; settings: normalized
human DGKα [1] = biological target: T1, human DGKα (Homo sapiens (Human), UniProt P23743); experiment: DGKα ADPGLO assay (detergent/lipid micelle substrate); type: biochemical; settings: truncated DGK alpha; read-out: DGK alpha ADPGLO (Truncated) IC50
T1 sequence (P23743 whole entry, looked up, the tested form may be a part): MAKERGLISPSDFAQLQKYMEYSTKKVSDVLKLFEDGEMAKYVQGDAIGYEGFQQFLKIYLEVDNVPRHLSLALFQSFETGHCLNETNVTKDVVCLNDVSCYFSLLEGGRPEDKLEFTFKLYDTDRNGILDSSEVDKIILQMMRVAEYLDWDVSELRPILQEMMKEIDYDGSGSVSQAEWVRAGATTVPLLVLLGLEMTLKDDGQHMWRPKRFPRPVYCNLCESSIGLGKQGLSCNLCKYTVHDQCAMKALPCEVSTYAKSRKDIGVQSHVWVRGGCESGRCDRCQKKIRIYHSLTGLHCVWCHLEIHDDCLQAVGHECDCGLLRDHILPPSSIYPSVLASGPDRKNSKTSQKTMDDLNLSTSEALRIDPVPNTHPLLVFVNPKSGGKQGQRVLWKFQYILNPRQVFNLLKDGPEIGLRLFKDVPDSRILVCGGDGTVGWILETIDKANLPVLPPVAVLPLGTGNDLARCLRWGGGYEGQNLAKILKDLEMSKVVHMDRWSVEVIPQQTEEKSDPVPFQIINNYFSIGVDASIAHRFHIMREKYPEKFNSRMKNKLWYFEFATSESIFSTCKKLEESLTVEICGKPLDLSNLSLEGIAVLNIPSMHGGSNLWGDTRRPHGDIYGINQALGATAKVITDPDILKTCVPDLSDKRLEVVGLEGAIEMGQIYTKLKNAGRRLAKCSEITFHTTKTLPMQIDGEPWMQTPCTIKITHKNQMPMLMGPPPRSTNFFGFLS
Description: DGK Alpha ADPGLO (Truncated) IC50 (uM)
The detergent/lipid micelle was prepared by combining 15 g phosphatidylserine (Avanti 840035P) and 1 g diacylglycerol (8008110) and dissolving into 150 mL chloroform in a 2 L round bottom flask. Chloroform was removed under high vacuum by rotary evaporation. […] The lipid/detergent solution was split into 5 mL aliquots and stored at −80° C.

human DGKα [2] = biological target: T1, human DGKα; experiment: DGKα LIPGLO assay (extruded liposome substrate, ADP-Glo luminescence); type: biochemical; settings: liposome assay; read-out: DGK alpha LIPGLO IC50
[3] = test system: human venous whole blood (IFN-γ); experiment: Human whole blood IFN-γ assay; type: cell-based; settings: whole blood, normalized to 3 μM reference compound as 100% activation, read-out: IFN-γ Whole Blood Normalized EC50
Description: Human venous whole blood (22.5 μL per well), obtained from healthy donors, was pre-treated with compounds for one hour at 37° C. in a humidified 95% air/5% CO2 incubator. The blood was stimulated with 2.5 μL anti-human CD3 and anti-CD28 mAb at a final concentration of 1 μg/mL each for 24 hours at 37° C. IFN-γ in the supernatants was measured using AlphLISA kit (Cat #AL217).

Chain of human DGKζ (Q13574 other isoform, or with tags, fused parts or gaps): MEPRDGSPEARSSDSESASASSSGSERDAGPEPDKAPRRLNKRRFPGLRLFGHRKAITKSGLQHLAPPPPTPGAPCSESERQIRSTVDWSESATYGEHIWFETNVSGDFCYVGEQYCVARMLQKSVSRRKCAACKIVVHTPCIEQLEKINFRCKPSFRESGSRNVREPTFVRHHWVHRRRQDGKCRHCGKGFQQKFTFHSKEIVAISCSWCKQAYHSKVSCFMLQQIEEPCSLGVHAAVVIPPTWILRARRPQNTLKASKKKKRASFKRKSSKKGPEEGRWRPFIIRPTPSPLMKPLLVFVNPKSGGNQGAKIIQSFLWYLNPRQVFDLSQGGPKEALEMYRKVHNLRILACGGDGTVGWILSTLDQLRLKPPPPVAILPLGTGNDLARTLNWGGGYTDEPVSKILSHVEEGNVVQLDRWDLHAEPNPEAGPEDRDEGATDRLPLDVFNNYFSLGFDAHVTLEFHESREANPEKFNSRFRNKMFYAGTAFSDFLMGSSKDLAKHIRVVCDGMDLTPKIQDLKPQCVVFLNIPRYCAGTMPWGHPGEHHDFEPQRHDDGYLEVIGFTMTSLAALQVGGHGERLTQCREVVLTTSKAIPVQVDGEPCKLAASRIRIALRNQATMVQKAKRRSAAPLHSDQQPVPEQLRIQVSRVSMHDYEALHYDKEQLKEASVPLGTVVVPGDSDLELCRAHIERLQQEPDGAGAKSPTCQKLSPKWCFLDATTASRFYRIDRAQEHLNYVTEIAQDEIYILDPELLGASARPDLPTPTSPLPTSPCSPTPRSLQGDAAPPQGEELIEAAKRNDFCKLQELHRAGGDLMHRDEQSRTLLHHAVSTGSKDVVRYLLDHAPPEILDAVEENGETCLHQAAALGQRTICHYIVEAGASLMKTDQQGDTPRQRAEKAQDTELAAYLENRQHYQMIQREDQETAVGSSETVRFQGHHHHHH

| Structure (SMILES) | IC50 (human DGKζ) [nM] | IC50 (whole blood (pERK)) [nM] | IC50 (human DGKα [1]) [nM] | IC50 (human DGKα [2]) [nM] | EC50 [3] [nM] | EC50 ([3]; Homo sapiens) [nM] |
| --- | --- | --- | --- | --- | --- | --- |
| CC[C@H]1CN(C(C)c2ccc(C(F)(F)F)cc2N2CCOCC2)[C@H](CC)CN1c1nc(=O)n(C)c2ccc(C#N)nc12 (stereo partly drawn) [Example 194, 4-((2S,5R)-2,5-diethyl-4-(1-(2-morpholino-4-(trifluoromethyl)phenyl)ethyl)piperazin-1-yl)-1-methyl-2-oxo-1,2-dihydropyrido[3,2-d]pyrimidine-6-carbonitrile] | 5250 | 270 | – | – | – | – |
| CC[C@H]1CN(C(c2ccc(OC(C)C)cc2)C(C)C)[C@H](CC)CN1c1nc(=O)n(C)c2ccc(C#N)nc12 (stereo partly drawn) [Example 262, 4-((2S,5R)-2,5-diethyl-4-(1-(4-isopropoxyphenyl)-2-methylpropyl)piperazin-1-yl)-1-methyl-2-oxo-1,2-dihydropyrido[3,2-d]pyrimidine-6-carbonitrile] | – | 4150 | – | – | – | – |
| CC[C@H]1CN(C(C)c2ccc(C(F)(F)F)cc2F)[C@H](CC)CN1c1nc(=O)n(C)c2ccc(C#N)nc12 (single isomer, unassigned) [Example 25] | 1340 | – | 330 | 1230 | 1250 | – |
| CC[C@@H]1CN(c2nc(=O)n(C)c3ccc(C#N)nc23)[C@@H](C)CN1C(c1ccc(F)cc1)c1ccc(C(F)(F)F)cn1 (stereo partly drawn) [Example 46, 4-((2S,5R)-5-Ethyl-4((4-fluorophenyl)(5-(trifluoromethyl)pyridin-2-yl)methyl)-2-methylpiperazin-1-yl)-1-methyl-2-oxo-1,2-dihydropyrido[3,2-d]pyrimidine-6-carbonitrile] | – | 43 | – | – | – | 73 |
| CCC(c1ccc(OC(F)(F)F)cc1)N1C[C@H](CC)N(c2nc(=O)n(C)c3ccc(C#N)nc23)C[C@H]1CC (single isomer, unassigned) [Example 37] | 470 | – | 120 | 69 | 20000 | – |
| CCC(c1ccc(OC(F)(F)F)cc1F)N1C[C@H](C)N(c2nc(=O)n(C)c3ccc(C#N)nc23)C[C@H]1CC (single isomer, unassigned) [Example 86] | 2370 | – | 420 | 2940 | 1540 | – |
| CC[C@H]1CN(C(c2ccc(F)cc2)c2nc(C3CC3)no2)[C@H](CC)CN1c1nc(=O)n(C)c2ccc(C#N)nc12 (single isomer, unassigned) [Example 111] | – | 90 | – | – | 21 | – |
| CC[C@H]1CN(C(c2ccc(F)cc2)c2nc(C3CC3)no2)[C@H](CC)CN1c1nc(=O)n(C)c2ccc(C#N)nc12 (single isomer, unassigned) [Example 110] | – | 15 | – | – | 9 | – |
| CC[C@@H]1CN(c2nc(=O)n(C)c3ccc(C#N)nc23)[C@@H](C)CN1C(c1ccc(Cl)cc1)c1ccccn1 (single isomer, unassigned) [Example 95] | – | 10500 | – | – | 370 | – |
| CCC(c1ccc(C(F)(F)F)cc1)N1C[C@H](C)N(c2nc(=O)n(C)c3ccc(C#N)nc23)C[C@H]1CC (single isomer, unassigned) [Example 90] | 590 | – | 140 | 120 | – | – |
| CC[C@@H]1CN(c2nc(=O)n(C)c3ccc(C#N)nc23)[C@@H](C)CN1C(C)c1ccc(OCC2CC2)cc1 (single isomer, unassigned) [Example 68] | 480 | – | – | 1630 | – | 1900 |
| CC(c1ccc(C(F)(F)F)cc1)N1C[C@H](C)N(c2nc(=O)n(C)c3ccc(C#N)nc23)C[C@H]1C (single isomer, unassigned) [Example 141] | 1760 | – | – | 1270 | 3550 | – |
| CC(C)c1ccc(CN2C[C@H](C)N(c3nc(=O)n(C)c4ccc(C#N)nc34)C[C@H]2C)cc1 [Example 137, 4-((2S,5R)-4-(4-isopropylbenzyl)-2,5-dimethylpiperazin-1-yl)-1-methyl-2-oxo-1,2-dihydropyrido[3,2-d]pyrimidine-6-carbonitrile] | 190 | – | – | 83 | – | 2650 |
| CC[C@H]1CN(C(C)c2ccc(OC(C)C)cc2)[C@H](CC)CN1c1nc(=O)n(C)c2ccc(C#N)nc12 (single isomer, unassigned) [Example 19] | 3100 | – | – | 4050 | – | 2060 |
| CC[C@@H]1CN(c2nc(=O)n(C)c3ccc(C#N)nc23)[C@@H](C)CN1C(c1ccc(F)cc1)c1cccc(C(F)(F)F)n1 (single isomer, unassigned) [Example 66] | 110 | – | 2 | 230 | 75 | – |
| CC[C@@H]1CN(c2nc(=O)n(C)c3ccc(C#N)nc23)[C@@H](C)CN1C(C)c1ccc(OC(F)(F)F)cc1F (single isomer, unassigned) [Example 82] | 2450 | – | – | 1540 | 530 | – |

| Structure (SMILES) | IC50 (human DGKζ) [nM] | IC50 (whole blood (pERK)) [nM] | IC50 (human DGKα [1]) [nM] | IC50 (human DGKα [2]) [nM] | EC50 [3] [nM] | EC50 ([3]; Homo sapiens) [nM] |
| --- | --- | --- | --- | --- | --- | --- |
| CC(c1ccc(OC(F)(F)F)cc1)N1C[C@H](C)N(c2nc(=O)n(C)c3ccc(C#N)nc23)C[C@H]1C (single isomer, unassigned) [Example 132] | 5950 | – | – | 700 | 2650 | – |
| CC[C@@H]1CN(c2nc(=O)n(C)c3ccc(C#N)nc23)[C@@H](C)CN1C(C)c1ccc(OC(C)C)cc1 (single isomer, unassigned) [Example 53] | 79 | – | – | 630 | 200 | – |
| CC[C@@H]1CN(c2nc(=O)n(C)c3ccc(C#N)nc23)[C@@H](C)CN1C(c1ccc(F)cc1)c1cnc(C2CC2)s1 (single isomer, unassigned) [Example 104] | 110 | – | – | 470 | 210 | – |
| COC[C@@H]1CN(c2nc(=O)n(C)c3ccc(C#N)nc23)[C@@H](C)CN1C(C)c1ccc(C(F)(F)F)cc1 (single isomer, unassigned) [Example 175] | 830 | – | – | 980 | 1690 | – |
| CC[C@H]1CN(C(C)c2ccc(C(F)(F)F)nc2)[C@H](CC)CN1c1nc(=O)n(C)c2ccc(C#N)nc12 (single isomer, unassigned) [Example 44] | 21 | – | – | 85 | 260 | – |
| CC[C@@H]1CN(c2nc(=O)n(C)c3ccc(C#N)nc23)[C@@H](C)CN1C(c1ccc(F)cc1)c1ccc(C(F)(F)F)cn1 (single isomer, unassigned) [Example 47] | – | 20 | – | – | – | 32 |
| CC[C@H]1CN(C(C)c2ccc(OCC3CC3)cc2F)[C@H](CC)CN1c1nc(=O)n(C)c2ccc(C#N)nc12 (single isomer, unassigned) [Example 33] | 5930 | – | – | 2560 | 3830 | – |
| C[C@@H]1CN(c2nc(=O)n(C)c3ccc(C#N)nc23)[C@@H](C)CN1C(c1ccc(F)cc1)c1ccc(C(F)(F)F)cn1 (single isomer, unassigned) [Example 127] | – | 240 | – | – | – | 410 |
| CC(c1ccc(C(F)(F)F)cc1)N1C[C@H](C)N(c2nc(=O)n(C)c3ccc(C#N)nc23)C[C@H]1C (single isomer, unassigned) [Example 140] | 360 | – | – | 180 | 430 | – |
| CC[C@@H]1CN(c2nc(=O)n(C)c3ccc(C#N)nc23)[C@@H](CC)CN1Cc1ccc(OC(F)(F)F)cc1F [Example 27, 4-((2S,5R)-2,5-diethyl-4-(2-fluoro-4-(trifluoromethoxy)benzyl)piperazin-1-yl)-1-methyl-2-oxo-1,2-dihydropyrido[3,2-d]pyrimidine-6-carbonitrile] | 230 | – | – | 2 | – | 620 |
| CC[C@@H]1CN(c2nc(=O)n(C)c3ccc(C#N)nc23)[C@@H](C)CN1C(C)c1ccc(C2CC2)cc1F (single isomer, unassigned) [Example 92] | 120 | – | – | 460 | 350 | – |
| CCC(c1ccc(C(F)(F)F)cc1)N1C[C@H](CC)N(c2nc(=O)n(C)c3ccc(C#N)nc23)C[C@H]1CC (single isomer, unassigned) [Example 6] | – | 6980 | 58 | – | – | – |
| CC[C@H]1CN(C(c2ccc(F)cc2)c2ccon2)[C@H](CC)CN1c1nc(=O)n(C)c2ccc(C#N)nc12 (single isomer, unassigned) [Example 34] | 310 | – | – | 620 | 420 | – |
| C[C@@H]1CN(c2nc(=O)n(C)c3ccc(C#N)nc23)[C@@H](C)CN1Cc1cc(F)c(F)c(F)c1 [Example 130, 4-((2S,5R)-2,5-dimethyl-4-(3,4,5-trifluorobenzyl)piperazin-1-yl)-1-methyl-2-oxo-1,2-dihydropyrido[3,2-d]pyrimidine-6-carbonitrile] | 960 | – | – | 12400 | – | 4070 |
| CC[C@@H]1CN(c2nc(=O)n(C)c3ccc(C#N)nc23)[C@@H](C)CN1C(C)c1ccc(C(F)(F)F)cc1F (single isomer, unassigned) [Example 58] | 54 | – | – | 270 | 22 | – |
| CC[C@H]1CN(C(c2ccc(OC)cc2)C(C)C)[C@H](CC)CN1c1nc(=O)n(C)c2ccc(C#N)nc12 (stereo partly drawn) [Example 249, 4-((2S,5R)-2,5-diethyl-4-(1-(4-methoxyphenyl)-2-methylpropyl)piperazin-1-yl)-1-methyl-2-oxo-1,2-dihydropyrido[3,2-d]pyrimidine-6-carbonitrile] | 40 | 420 | – | – | – | – |
